# Assays:
# Assay in all cases: relative viability (nuclei count vs DMSO), 5 days (fraction); higher = more cells survive
# 4EGI-1 + Navitoclax = compound: O=C(O)C(Cc1ccccc1[N+](=O)[O-])=NNc1nc(-c2ccc(Cl)c(Cl)c2)cs1 (mixture of isomers) [4EGI-1] + CC1(C)CCC(c2ccc(Cl)cc2)=C(CN2CCN(c3ccc(C(=O)NS(=O)(=O)c4ccc(N[C@H](CCN5CCOCC5)CSc5ccccc5)c(S(=O)(=O)C(F)(F)F)c4)cc3)CC2)C1 [Navitoclax] (partner 0.5 µM)
# Procedure, shortened: (§1)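 Lung cancer cell lines were pin-tool dosed in 1536-well plates on the day after seeding, with either a lone drug or a fixed anchor-drug dose plus five library-drug doses (not always all listed) in √10 steps. Nuclei were counted on 4× images after 5 days. Relative viability is the ratio of treated-well to vehicle-well nuclei counts, with each value a median of duplicate plates.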
# 4EGI-1 + Decitabine = compound: O=C(O)C(Cc1ccccc1[N+](=O)[O-])=NNc1nc(-c2ccc(Cl)c(Cl)c2)cs1 (mixture of isomers) [4EGI-1] + Nc1ncn([C@H]2C[C@H](O)[C@@H](CO)O2)c(=O)n1 [Decitabine] (partner 2 µM)
# Procedure, shortened: as §1
# XMD8-85 + Foretinib = compound: CN1CCN(CC1)C2=CC(=C(C=C2)NC3=NC=C4C(=N3)N(C5=CC=CC=C5C(=O)N4C)C)OC [XMD8-85] + COc1cc2c(Oc3ccc(NC(=O)C4(C(=O)Nc5ccc(F)cc5)CC4)cc3F)ccnc2cc1OCCCN1CCOCC1 [Foretinib] (partner 0.25 µM)
# Procedure, shortened: as §1
# XMD8-85 + Decitabine = compound: CN1CCN(CC1)C2=CC(=C(C=C2)NC3=NC=C4C(=N3)N(C5=CC=CC=C5C(=O)N4C)C)OC [XMD8-85] + Nc1ncn([C@H]2C[C@H](O)[C@@H](CO)O2)c(=O)n1 [Decitabine] (partner 2 µM)
# Procedure, shortened: as §1
Cell Line,relative viability (4EGI-1 + Navitoclax; first compound 0.5 µM),relative viability (4EGI-1 + Navitoclax; first compound 1.581 µM),relative viability (4EGI-1 + Navitoclax; first compound 5 µM),relative viability (4EGI-1 + Navitoclax; first compound 15.81 µM),relative viability (4EGI-1 + Navitoclax; first compound 50 µM),relative viability (4EGI-1 + Decitabine; first compound 0.5 µM),relative viability (4EGI-1 + Decitabine; first compound 1.581 µM),relative viability (4EGI-1 + Decitabine; first compound 5 µM),relative viability (4EGI-1 + Decitabine; first compound 15.81 µM),relative viability (4EGI-1 + Decitabine; first compound 50 µM),relative viability (XMD8-85 + Foretinib; first compound 0.08 µM),relative viability (XMD8-85 + Foretinib; first compound 0.253 µM),relative viability (XMD8-85 + Foretinib; first compound 0.8 µM),relative viability (XMD8-85 + Foretinib; first compound 2.53 µM),relative viability (XMD8-85 + Foretinib; first compound 8 µM),relative viability (XMD8-85 + Decitabine; first compound 0.08 µM),relative viability (XMD8-85 + Decitabine; first compound 0.253 µM),relative viability (XMD8-85 + Decitabine; first compound 0.8 µM),relative viability (XMD8-85 + Decitabine; first compound 2.53 µM),relative viability (XMD8-85 + Decitabine; first compound 8 µM)
NCI-H1755,1.02,0.995,0.949,0.86,0.833,0.718,0.676,0.654,0.697,0.618,0.873,0.921,0.88,0.97,0.783,0.754,0.677,0.714,0.764,0.724
NCI-H2405,1.28,0.628,1.09,1.15,0.58,0.791,,0.755,0.734,0.478,1.07,1.08,1.07,1.04,0.984,0.672,0.765,0.705,0.854,0.75
SK-LU-1,0.792,1.09,0.974,0.548,0.161,0.682,0.65,0.653,0.48,0.367,0.845,0.825,0.841,0.772,0.674,0.607,0.58,0.61,0.705,0.549
PC-14,1.09,,0.985,,0.981,0.227,,0.222,0.13,0.0662,0.953,0.826,0.881,1.03,0.851,0.275,0.276,0.223,0.162,0.133
NCI-H2009,1.19,1.21,1.22,1.11,0.17,0.419,0.359,0.389,0.292,0.317,1.24,1.25,1.23,1.08,0.516,0.42,0.371,0.414,0.417,0.255
NCI-H596,0.956,0.708,0.86,0.869,0.805,1.01,1.11,1.16,0.942,0.569,0.844,0.85,0.983,0.642,0.502,0.941,1.01,,2,0.873
HARA,1.15,1.1,1.12,1.15,0.672,0.446,0.511,0.692,0.366,0.167,1.09,0.701,0.97,0.782,0.583,0.657,0.647,0.407,0.659,0.416
UMC-11,0.392,0.345,0.367,0.301,0.216,0.731,0.609,0.685,0.624,0.419,1.17,0.949,1.21,0.913,0.651,0.568,0.618,0.594,0.545,0.544
NCI-H460,1.22,,1.16,0.701,0.0476,0.562,0.246,0.476,0.188,0.0663,1.07,1.09,1.05,0.948,0.78,0.442,0.506,0.503,0.566,0.396
NCI-H322M,1.21,1.18,1.16,1.17,1.41,0.692,,0.764,0.636,0.727,0.733,0.856,1.01,0.8,0.631,0.688,0.659,0.707,0.644,0.606
NCI-H1734,0.931,0.901,0.96,0.851,0.492,0.569,0.535,0.519,0.463,0.29,0.858,0.853,0.896,0.842,0.629,,0.519,0.528,0.591,0.464
NCI-H2170,0.671,0.515,0.584,0.573,0.354,0.502,0.449,0.459,0.441,0.282,1.04,1.01,0.985,1.02,0.965,0.478,0.478,0.498,0.497,0.484
HCC-15,0.797,0.781,0.744,0.685,0.494,0.89,0.723,0.675,0.527,0.217,1.05,1.01,0.963,1.05,0.766,0.537,0.642,0.782,0.749,0.517
NCI-H1651,1.17,0.914,0.965,1.01,0.33,0.626,0.553,0.734,0.576,0.286,0.857,0.769,0.712,0.799,0.631,0.595,0.592,0.601,0.67,0.506
LOU-NH91,0.91,,0.741,0.367,0.526,0.841,,0.815,0.658,0.686,,0.966,0.863,1.02,0.843,0.797,0.852,0.793,0.821,0.646
NCI-H3122,1.01,0.975,1.02,1.06,1.01,0.452,0.487,0.454,0.521,0.351,1.04,,1.07,1.04,0.947,0.401,0.439,0.481,0.507,0.543
